In US20220265591A1, “USE OF AN OSMOLYTE IN MANUFACTURE OF A MEDICAMENT FOR TREATMENT OF OCULAR DISORDERS” (SINGAPORE HEALTH SERVICES PTELTD, priority 2019, published 2022):
Entries after “also recorded” stand apart in the source; their conditions may differ. Where two headings read alike, the source gives them in different places.

What was measured:
Format in all cases: biochemical
[1] = target: T1, TGFBIp611-633 G623R peptide (Homo sapiens, UniProt Q15582, G623R); assay: Circular Dichroism assay (θ[218]), inhibition of amyloid fibrillation
T1 construct: The 23-amino acid long peptide (TGFBIp 611-633 c.623 G>R) from the 4th FAS1 domain; purchased Synpeptide Co Ltd, Shanghai, China; host or cells: synthetic peptide
Protocol: The peptide samples were collected 0.1 cm path length quartz cuvettes and examined in a Chirascan™-plus Spectropolarimeter (Applied Photophysics Limited, UK). Spectra were recorded from 260 nm to 190 nm in 0.1 nm steps at a scan rate of 50 nm/min. The final spectrum was the average of three scans as per the manufacturer's recommendation. The Mean Residual Weight (MRW) ellipticity ([θ]mrw values) at wavelength λ was calculated using the following equation (i): […]
whereby θλ is the observed ellipticity at a particular wavelength (degrees), I is the path length (cm), and c is the concentration (g/ml). Secondary structures of the protein were analyzed using CDNN software.
The θ[218] values that determine the β-sheet secondary structure were used to calculate the percentage inhibition in cross β-sheet in the untreated and osmolyte-treated peptide samples at various time points. Percentage inhibition for each osmolyte treatment per time point was calculated by normalizing the [θ]218 values of osmolyte treatment with the [θ]218 values of the untreated samples and expressed as a percentage.
Circular Dichroism (CD) spectroscopy was performed to study the changes in the secondary structure of the peptides. The TGFBIp^611-633 G623R peptides were treated with 200 mM and 320 mM of taurine in PBS buffer at pH 7.0 for 24 h, 48 h and 72 h, respectively. While the TGFBIp^611-633 N622K peptides were treated with 200 mM and 320 mM of taurine in PBS buffer at pH 7.0 for 72 h, 96 h, 120 h, 144 h, 192 h, 216 h, and 240 h, respectively. The treatment solutions were studied by far UV-CD assay.

[2] = target: T1, TGFBIp611-633 G623R peptide; assay: ThT fluorescence assay, inhibition of amyloid fibrillation; conditions: for inhibition at 200000 µM: 200 mM
Protocol: The 23-amino acid long peptide (TGFBIp 611-633 c.623 G>R) from the 4th FAS1 domain of TGFBIp with the substitution, G623→R ([…]) that rapidly formed amyloid fibrils was used in this study. The peptide was dissolved (0.6 mg/ml) in PBS and allowed to form amyloid fibrils in 50 ml Falcon tubes in a shaking incubator at 37° C. and 180 rpm with and without the addition of osmolytes. […] The TGFBIp^611-633 G623R peptide incubated with PBS was used as a control.
The peptide samples collected at various time points above were treated with 30 μM Thioflavin T (ThT) (Sigma-Aldrich Inc., MO, USA) in PBS buffer at pH 5.5 in a 96-well microplate (Greiner Bio-One, Frickenhausen, Germany) for ThT fluorescence assay. The microplate was excited at 445 nm and the resulting emission fluorescence at 485 nm was measured using a microplate reader (Tecan Infinite M200 Pro, CA, USA).
Percentage inhibition for each osmolyte treatment was calculated by subtracting the baseline fluorescent intensity without the peptides and compounds from the observed fluorescent intensity of each treatment well. The fluorescent intensities per osmolyte treatment were normalized against the untreated fluorescent intensity per time point and expressed as a percentage.
The TGFBIp^611-633 G623R peptides were treated with 200 mM and 320 mM of taurine for up to 72 hours, respectively, the results of which are illustrated in FIG. 11. The TGFBIp^611-633 N622K peptides were treated with 200 mM and 320 mM of taurine for up to 240 hours, respectively, the results of which are illustrated in FIG. 12. The peptides incubated with PBS were used as controls.
The peptide samples were collected at 24 h, 48 h and 72 h after treatment for TGFBIp^611-633 G623R peptides and at 120 h, 144 h and […] after treatment for the TGFBIp^611-633 N622K peptides. The samples were then treated with 30 μM ThT in PBS buffer at pH 5.5 in a 96-well microplate for ThT fluorescence assay. The microplate was excited at 445 nm and the resulting emission fluorescence at 485 nm was measured using a microplate reader.

[3] = target: T2, preformed amyloid fibrils from TGFBIp611-633 G623R peptide (Homo sapiens, UniProt Q15582, G623R); assay: ThT fluorescence assay, dissolution of preformed amyloid fibrils; conditions: for inhibition at 200000 µM: preformed fibrils, read-out: % Inhibition (mean ± SD) n = 3, dissolution of amyloid fibrils, ThT fluorescence; for % Dissolution at final time point, ThT: TGFBIp-G623R preformed fibrils
T2 construct: The 23-amino acid long peptide (TGFBIp 611-633 c.623 G>R) from the 4th FAS1 domain; purchased Synpeptide Co Ltd, Shanghai, China; host or cells: synthetic peptide
Protocol: The TGFBIp^611-633 G623R peptides were incubated in PBS for 24 hours, allowed to form uniform amyloid fibrils. The TGFBIp^611-633 G623R peptide solution was then subjected to Circular Dichroism spectroscopy to confirm the formation of amyloid fibrils.
The preformed amyloid fibril solution incubated with PBS was used as a control.
The peptide samples collected at the various time points above were treated with 30 μM ThT in PBS buffer at pH 5.5 in a 96-well microplate for ThT fluorescence assay. The microplate was excited at […] and the resulting emission fluorescence at 485 nm was measured using a microplate reader (Tecan Infinite M200 Pro, CA, USA).
The preformed amyloid fibrils were treated with taurine at a concentration of 200 mM and 320 mM for up to 72 hours, respectively. The preformed amyloid fibrils incubated with PBS were used as controls.
The samples were collected at 24 h, 48 h and 72 h after treatment for the TGFBIp^611-633 G623R peptides, and at 24 h, 48 h, 96 h and 144 h after treatment for the TGFBIp^611-633 N622K peptides. The samples were then treated with 30 μM ThT in PBS buffer at pH 5.5 in a 96-well microplate for ThT fluorescence assay. The microplate was excited at 445 nm and the resulting emission fluorescence at 485 nm was measured using a microplate reader.

[4] = 200 mM, 24 h, read-out: % Inhibition (mean ± SD) n = 3, θ[218] circular dichroism
[5] = 200 mM, 48 h, read-out: % Inhibition (mean ± SD) n = 3, θ[218] circular dichroism
[6] = 200 mM, 72 h, read-out: % Inhibition (mean ± SD) n = 3, θ[218] circular dichroism
[7] = 24 h, read-out: % Inhibition (mean ± SD) n = 3, ThT fluorescence
[8] = 48 h, read-out: % Inhibition (mean ± SD) n = 3, ThT fluorescence
[9] = 72 h, read-out: % Inhibition (mean ± SD) n = 3, ThT fluorescence
[10] = TGFBIp-G623R, 320 mM, final time point

T2 sequence (Q15582 611-633 G623R limits assumed): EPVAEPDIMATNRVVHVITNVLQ

inhibition at 200000 µM [1, 4] | inhibition at 200000 µM [1, 5] | inhibition at 200000 µM [1, 6] | inhibition at 200000 µM [2, 7] | inhibition at 200000 µM [2, 8] | inhibition at 200000 µM [2, 9] | inhibition at 200000 µM ([3]; 200 mM, 24 h) | inhibition at 200000 µM ([3]; 200 mM, 48 h) | inhibition at 200000 µM ([3]; 200 mM, 72 h) | Structure (SMILES) | inhibitory effect on fibrillation compared among the four osmolytes, CD ([1]; 200 mM) | other results
8% | 19% | 34% | 16 ± 3% | 26 ± 3% | 44% | 4 ± 3% | 34 ± 11% | 37 ± 17% | C[N+](C)(C)CC(=O)O [Betaine, betaine] |  | 
19% | 23% | 57% | 21 ± 6% | 32 ± 2% | 65% | 14 ± 4% | 48 ± 6% | 64% | OC[C@H]1O[C@H](OC[C@H]2O[C@H](O[C@]3(CO)O[C@H](CO)[C@@H](O)[C@@H]3O)[C@H](O)[C@@H](O)[C@@H]2O)[C@H](O)[C@@H](O)[C@H]1O [Raffinose, raffinose] | maximum inhibition; also recorded: maximum inhibitory effect | 
~17% | ~43% | ~57% | 20 ± 3% | 32 ± 2% | 56% | 24 ± 3% | 47 ± 4% | 53 ± 3% | CNCC(=O)O [Sarcosine, sarcosine] | maximum inhibition | 
~25% | ~54% | ~56% | 20 ± 6% | 34 ± 5% | 48% | 23 ± 1% | 52 ± 5% | 61% | NCCS(=O)(=O)O [Taurine, taurine] |  | % Inhibition at final time point, CD ([1]; TGFBIp-G623R, 200 mM, final time point): 42%; inhibition at 200000 µM ([1]; TGFBIp-G623R, 200 mM, final time point, read-out: % Inhibition at final time point, CD): 41%; % Inhibition at final time point, CD [1, 10]: 63%; inhibition at 320000 µM ([1]; TGFBIp-G623R, 320 mM, final time point, read-out: % Inhibition at final time point, CD): 61%; inhibition at 200000 µM ([2]; TGFBIp-G623R, final time point, read-out: % Inhibition at final time point, ThT): 41%; % Inhibition at final time point, ThT [2, 10]: 60%; inhibition at 320000 µM [2, 10]: 61%; % Dissolution at final time point, ThT ([3]; 200 mM): 63%; % Dissolution at final time point, ThT ([3]; 200 mM, listed as taurine): 64%; % Dissolution at final time point, ThT ([3]; 320 mM): 83%; % Dissolution at final time point, ThT ([3]; 320 mM, listed as taurine): 83%
